Where two headings read alike, the source gives them in different places.
Experiments:
Fusarium graminearum [1] = system: Fusarium graminearum; design: species or system wheat; conditions: in vivo
Septoria tritici [2] = type: cell-based
Fusarium graminearum [3] = type: cell-based
Fusarium graminearum [4] = type: cell-based
Mycosphaerella fijiensis = type: cell-based
Septoria tritici [5] = type: cell-based; design: key: + indicates a 1- to 5-fold improvement in activity compared to a reference defensin protein; ++ indicates a >5- to 10-fold improvement; +++ indicates a >10-fold improvement; “0” indicates no activity detected
[6] = Measurement taken at 144 hours after inoculation, fold improvement compared to DmAMP1
[7] = Table 2B (Dm-AMP1 based libraries), improvement compared to reference defensin protein (Rs-AFP2 for Table 2B [sic])
[8] = Measurement taken at 72 hours after inoculation, fold improvement compared to DmAMP1
[9] = Table 2C (mixed diversity library), improvement compared to reference defensin protein DmAMP

Sequence	disease spread compared to NP or wildtype defensin expression level in the infected plant (Fusarium graminearum [1])	Antifungal activity, Septoria tritici (improvement compared to DmAMP1) (Septoria tritici [2]; [6])	Antifungal activity, Fusarium graminearum (improvement compared to DmAMP1) (Fusarium graminearum [4]; [8])	Antifungal activity, Mycosphaerella fijiensis (improvement compared to DmAMP1) (Mycosphaerella fijiensis; [6])	Activity (1): antifungal activity of the NP against Fusarium graminearium (Fusarium graminearum [3]; [9])	further results
ELCEKASKTWSGNCGNTKHCDTQCKNWEGAKHGACHVRSGKHKCFCYFNC (Defensin like) [L3-135]	clear inverse correlation between expression level and disease spread					
QKLCQRPSGTWSGVCMNNNACKNQCIRLEKAKHGSCNYVFPAHKCICYFPC (Defensin like) [L2-52]	No clear correlation					
NLCERASKTWTGNCGNTKHCDNQCRNWEGAKHGACHKRSGKWKCFCYFNC (Defensin like) [L9-15]		++ (++ indicating >5- to 10-fold improvement)	++ (++ indicating >5- to 10-fold improvement)	+ (+ indicating 1- to 5-fold improvement compared to DmAMP1)		Activity (1): antifungal activity of the NP against Fusarium graminearium (Fusarium graminearum [3]; [7]): +++ (+++ indicates a >10-fold improvement)
NLCERASKTWTGNCGNTKHCDNQCKNWEGAKHGACHVRNGKWKCFCYFNC [L6-41] (Defensin like)		+ (+ indicating 1- to 5-fold improvement compared to DmAMP1)	+ (+ indicating 1- to 5-fold improvement compared to DmAMP1)	+ (+ indicating 1- to 5-fold improvement compared to DmAMP1)		Activity (1): antifungal activity of the NP against Fusarium graminearium (Fusarium graminearum [3]; [7]): +++ (+++ indicates a >10-fold improvement)
DGVKLCERASQTWTGHCGNTKHCDKQCRNWEGAKHGACHKRNGKWKCFCYFNC (Defensin like) [L7-179]		+ (+ indicating 1- to 5-fold improvement compared to DmAMP1)	+ (+ indicating 1- to 5-fold improvement compared to DmAMP1)	+ (+ indicating 1- to 5-fold improvement compared to DmAMP1)	+++ (+++ indicates a >10-fold improvement)	
QKLCEKPSRTWSGVCGNNNACKNQCIRLEKARHGSCNYRFPAHKCICYVPC (Defensin like) [L1-01]						Activity (2): antifungal activity against Septoria tritici (Septoria tritici [5]): 0
DGVKLCERPSQTWSGHCGNTKHCDKQCRNWEGAKHGACHVRNGKWKCFCYFNC (Defensin like) [L7-87]		++ (++ indicating >5- to 10-fold improvement)	+++ (+++ indicating >10-fold improvement)	+ (+ indicating 1- to 5-fold improvement compared to DmAMP1)	+++ (+++ indicates a >10-fold improvement)	
QKLCQKPSRTWSGVCGNNNACKNQCIRLEKARHGSCNYVFPAHKCICYFPC (Defensin like) [L2-12]	A protective effect was also seen					
DGVKLCERPSQTWTGNCGNTKHCDKQCKNWEKAKHGACHVRNGKWKCFCYFNC (Defensin like) [L7-457]		+ (+ indicating 1- to 5-fold improvement compared to DmAMP1)	+ (+ indicating 1- to 5-fold improvement compared to DmAMP1)	+ (+ indicating 1- to 5-fold improvement compared to DmAMP1)	+++ (+++ indicates a >10-fold improvement)	
NLCERASKTWSGNCGNTKHCDNQCKNWEGAKHGACHVRNGKHKCFCYFNC [L6-28] (Defensin like)	No clear correlation					Antifungal activity, Septoria tritici (improvement compared to DmAMP1) (Septoria tritici [2]): + (key: + indicating 1- to 5-fold improvement compared to DmAMP1; ++ indicating >5- to 10-fold improvement; +++ indicating >10-fold improvement); Antifungal activity, Fusarium graminearum (improvement compared to DmAMP1) (Fusarium graminearum [4]): +++ (key: + indicating 1- to 5-fold improvement compared to DmAMP1; ++ indicating >5- to 10-fold improvement; +++ indicating >10-fold improvement); Antifungal activity, Mycosphaerella fijiensis (improvement compared to DmAMP1) (Mycosphaerella fijiensis): + (key: + indicating 1- to 5-fold improvement compared to DmAMP1; ++ indicating >5- to 10-fold improvement; +++ indicating >10-fold improvement)
DGVKLCERPSQTWTGNCGNTKHCDKQCRNWEGAKHGACHVRNGKWKCFCYFNC (Defensin like) [L7-39]		+ (+ indicating 1- to 5-fold improvement compared to DmAMP1)	+ (+ indicating 1- to 5-fold improvement compared to DmAMP1)	+ (+ indicating 1- to 5-fold improvement compared to DmAMP1)	++ (++ indicates a >5- to 10-fold improvement)	
DGVKLCEKPSKTWSGHCGNTKHCDTQCRNWEKAKHGACHVRNGKWKCFCYFNC (Defensin like) [L7-392]		+ (+ indicating 1- to 5-fold improvement compared to DmAMP1)	+ (+ indicating 1- to 5-fold improvement compared to DmAMP1)	+ (+ indicating 1- to 5-fold improvement compared to DmAMP1)	+++ (+++ indicates a >10-fold improvement)	

Source: patent publication US7785828B1 (priority 2003, dated 2010)
